Nine compounds from patent US20210255193A1, “LYSINE REACTIVE PROBES AND USES THEREOF” (The Scripps Research Institute, priority 2017, published 2021) can be followed below.

Molecules are shown by their SMILES.

Experiment in all cases: competitive isoTOP-ABPP
Common to all, as to format: binding

Assay [1] deals with T1, IDH3B Isocitrate dehydrogenase (Homo sapiens, UniProt O43837).
T1 construct: isoTOP-ABPP experiments performed in cell lysates (in vitro); endogenous in cells; host or cells: MDA-MB-231 soluble lysate
Put shortly: (§1)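 Lysate + fragment (50 μM activated ester / 100 μM guanidinylating agent) or DMSO → 0.1 mM STP-alkyne, 1 h, RT → CuAAC to TEV tags (compound light, DMSO heavy) → LC-MS. R = heavy/light MS1 area; liganded lysine if R≥4.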

Assay [2] concerns the target T2, EIF5A2 Eukaryotic translation initiation factor 5A-2 (Homo sapiens, UniProt Q9GZV4).
T2 construct: isoTOP-ABPP experiments performed in cell lysates (in vitro); endogenous in cells; host or cells: soluble proteome of human cancer cell lines (MDA-MB-231; Ramos and Jurkat also prepared)
Particulars: 50 uM, in vitro. A digest of the protocol:
as §1

Assay [3] deals with T3, CCDC173 Coiled-coil domain-containing protein 173 (Homo sapiens, UniProt Q0VFZ6).
T3 construct: isoTOP-ABPP experiments performed in cell lysates (in vitro); endogenous in cells; host or cells: soluble proteome of human cancer cell lines (MDA-MB-231, Ramos, Jurkat)
Particulars: 50 uM, in vitro. A digest of the protocol: as §1

In assay [4] the target is T4, CCNA2 Cyclin-A2 (Homo sapiens, UniProt P20248).
T4 construct: isoTOP-ABPP experiments performed in cell lysates (in vitro); endogenous in cells; host or cells: soluble proteome of human cancer cell lines (MDA-MB-231; Ramos and Jurkat also prepared)
Particulars: 50 uM, in vitro. Put shortly:
as §1

The target of assay [5] is T5, ACIN1 Apoptotic chromatin condensation inducer in the nucleus (Homo sapiens, UniProt Q9UKV3).
T5 construct: endogenous in cells; host or cells: MDA-MB-231 lysate
As to conditions: 50 uM_231_sol_in vitro. A digest of the protocol: as §1

T2 sequence (Q9GZV4 whole entry): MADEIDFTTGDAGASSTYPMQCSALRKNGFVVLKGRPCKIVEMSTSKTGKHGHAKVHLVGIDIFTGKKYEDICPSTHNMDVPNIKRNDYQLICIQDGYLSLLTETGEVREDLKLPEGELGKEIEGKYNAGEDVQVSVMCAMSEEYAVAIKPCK
T5 sequence (Q9UKV3 whole entry): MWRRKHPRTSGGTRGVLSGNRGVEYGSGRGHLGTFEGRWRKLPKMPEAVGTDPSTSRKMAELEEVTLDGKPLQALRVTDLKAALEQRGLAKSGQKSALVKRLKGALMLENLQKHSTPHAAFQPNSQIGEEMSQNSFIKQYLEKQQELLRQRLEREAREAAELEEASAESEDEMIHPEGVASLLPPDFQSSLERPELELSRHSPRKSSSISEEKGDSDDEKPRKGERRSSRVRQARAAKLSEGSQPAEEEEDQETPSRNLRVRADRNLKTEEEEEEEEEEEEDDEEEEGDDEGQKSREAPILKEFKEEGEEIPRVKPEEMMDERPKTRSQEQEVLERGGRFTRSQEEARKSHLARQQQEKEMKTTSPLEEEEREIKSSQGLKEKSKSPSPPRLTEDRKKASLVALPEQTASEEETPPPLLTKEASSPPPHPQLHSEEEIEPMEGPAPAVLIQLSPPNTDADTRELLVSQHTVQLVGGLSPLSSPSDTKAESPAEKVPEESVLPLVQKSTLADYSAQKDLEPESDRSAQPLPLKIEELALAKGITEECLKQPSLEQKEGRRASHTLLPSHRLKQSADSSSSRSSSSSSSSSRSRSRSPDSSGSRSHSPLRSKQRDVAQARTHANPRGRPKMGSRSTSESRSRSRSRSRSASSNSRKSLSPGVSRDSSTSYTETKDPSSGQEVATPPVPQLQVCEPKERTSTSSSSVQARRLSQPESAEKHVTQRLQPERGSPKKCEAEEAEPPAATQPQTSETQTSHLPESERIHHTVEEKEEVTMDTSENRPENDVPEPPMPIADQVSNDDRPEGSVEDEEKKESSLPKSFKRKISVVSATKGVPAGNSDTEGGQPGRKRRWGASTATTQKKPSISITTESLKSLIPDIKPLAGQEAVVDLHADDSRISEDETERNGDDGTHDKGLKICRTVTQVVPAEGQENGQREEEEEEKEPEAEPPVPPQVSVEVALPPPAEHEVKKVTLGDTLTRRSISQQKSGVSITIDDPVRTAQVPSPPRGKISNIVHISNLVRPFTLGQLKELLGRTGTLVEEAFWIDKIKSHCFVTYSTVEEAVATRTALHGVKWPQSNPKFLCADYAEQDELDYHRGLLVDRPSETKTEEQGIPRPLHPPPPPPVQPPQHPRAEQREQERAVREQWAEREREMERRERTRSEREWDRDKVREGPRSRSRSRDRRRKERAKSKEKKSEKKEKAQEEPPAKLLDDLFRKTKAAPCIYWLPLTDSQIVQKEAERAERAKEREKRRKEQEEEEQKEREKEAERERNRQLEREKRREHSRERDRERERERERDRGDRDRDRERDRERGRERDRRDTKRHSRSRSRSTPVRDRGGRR
T1 sequence (O43837 35-385): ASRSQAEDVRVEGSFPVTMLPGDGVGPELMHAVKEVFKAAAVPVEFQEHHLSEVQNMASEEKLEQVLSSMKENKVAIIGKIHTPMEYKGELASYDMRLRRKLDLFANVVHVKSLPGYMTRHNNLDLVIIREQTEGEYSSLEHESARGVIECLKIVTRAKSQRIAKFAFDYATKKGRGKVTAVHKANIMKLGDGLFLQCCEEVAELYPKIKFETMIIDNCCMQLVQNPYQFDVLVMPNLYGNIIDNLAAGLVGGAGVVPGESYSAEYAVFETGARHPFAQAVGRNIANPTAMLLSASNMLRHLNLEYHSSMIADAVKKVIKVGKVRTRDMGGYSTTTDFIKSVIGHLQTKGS
T3 sequence (Q0VFZ6 whole entry, the tested form may be a part): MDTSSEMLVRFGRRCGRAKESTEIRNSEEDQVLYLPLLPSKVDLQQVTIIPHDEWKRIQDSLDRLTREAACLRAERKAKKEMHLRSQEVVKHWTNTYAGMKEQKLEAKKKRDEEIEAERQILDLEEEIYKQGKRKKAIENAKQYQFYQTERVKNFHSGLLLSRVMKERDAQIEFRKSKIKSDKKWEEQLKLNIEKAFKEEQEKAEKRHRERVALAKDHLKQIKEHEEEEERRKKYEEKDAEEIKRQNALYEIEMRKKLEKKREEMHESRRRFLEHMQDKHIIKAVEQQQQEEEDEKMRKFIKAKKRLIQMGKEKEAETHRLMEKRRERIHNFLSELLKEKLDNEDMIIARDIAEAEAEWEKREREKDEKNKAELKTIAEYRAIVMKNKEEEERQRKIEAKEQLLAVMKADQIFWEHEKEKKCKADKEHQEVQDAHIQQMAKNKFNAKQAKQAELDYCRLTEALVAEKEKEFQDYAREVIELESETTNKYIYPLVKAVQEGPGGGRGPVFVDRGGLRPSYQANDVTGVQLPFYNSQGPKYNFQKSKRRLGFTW
T4 sequence (P20248 whole entry): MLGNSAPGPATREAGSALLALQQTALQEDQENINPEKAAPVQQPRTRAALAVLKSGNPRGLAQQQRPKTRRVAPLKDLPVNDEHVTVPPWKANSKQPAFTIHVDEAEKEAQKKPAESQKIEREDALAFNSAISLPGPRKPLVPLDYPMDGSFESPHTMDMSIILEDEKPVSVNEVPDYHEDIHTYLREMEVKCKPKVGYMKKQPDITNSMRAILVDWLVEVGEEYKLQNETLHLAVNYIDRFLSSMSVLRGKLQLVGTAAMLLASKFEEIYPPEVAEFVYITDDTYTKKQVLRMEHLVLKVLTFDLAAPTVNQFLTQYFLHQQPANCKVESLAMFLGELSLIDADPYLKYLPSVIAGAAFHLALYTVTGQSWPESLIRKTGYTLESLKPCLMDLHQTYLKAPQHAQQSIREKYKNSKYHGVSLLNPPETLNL

Regarding `O=C(Oc1c(F)c(F)c(F)c(F)c1F)C(c1ccccc1)c1ccccc1` [fragment 20, Pentafluorophenyl 2,2-diphenylacetate], the “R value (DMSO/fragment) for probe 1 labeling” value in assay [1] (O43837_K207, 50 uM, 231 sol, in vitro) stood at 6.5. Turning to `O=C(Oc1c(F)c(F)c(F)c(F)c1F)c1cc(C(F)(F)F)cc(C(F)(F)F)c1` [fragment 21, Pentafluorophenyl 3,5-bis(trifluoromethyl)benzoate], the “R value (DMSO/fragment) for probe 1 labeling” value in assay [2] (Q9GZV4_K47, 231 sol) was found to be 5.0; in assay [3] (Q0VFZ6_K312, 231 sol), 20.0.

For the compound `COc1cc(CCC(=O)Oc2ccc([N+](=O)[O-])cc2[N+](=O)[O-])cc(OC)c1OC` [fragment 33, 2,4-Dinitrophenyl 3-(3,4,5-trimethoxyphenyl)propanoate], the “isoTOP-ABPP reactivity ratio at lysine P20248_K54” value in assay [4] (231 sol) is reported as 5.4. Consider `O=C(Oc1ccc([N+](=O)[O-])cc1[N+](=O)[O-])c1ccc2ccccc2n1` [fragment 35, 2,4-Dinitrophenyl quinoline-2-carboxylate], for which the “isoTOP-ABPP ratio (R) at liganded lysine Q0VFZ6_K312” value in assay [3] (sol, 231) came to 14.4. Turning to `O=C(Oc1ccc([N+](=O)[O-])cc1[N+](=O)[O-])c1ccc(-c2ccccc2)cc1` [fragment 37, 2,4-Dinitrophenyl [1,1′-biphenyl]-4-carboxylate], the “isoTOP-ABPP ratio (R) at liganded lysine P20248_K54” value in assay [4] (sol, 231) stood at 0.5. Regarding `O=C(CC12CC3CC(CC(C3)C1)C2)Oc1ccc([N+](=O)[O-])cc1[N+](=O)[O-]` [fragment 38, 2,4-Dinitrophenyl 2-(adamantan-1-yl)acetate], in assay [2] (sol, 231), the “isoTOP-ABPP ratio (R) at liganded lysine Q9GZV4_K47” value is 1.8. With `N#Cc1ccc(C(=O)Oc2ccc([N+](=O)[O-])cc2[N+](=O)[O-])cc1` [fragment 44, 2,4-Dinitrophenyl 4-cyanobenzoate], the “isoTOP-ABPP ratio, lysine Q9UKV3_K103” value in assay [5] was determined as 1.0. Turning to `O=C(ON1C(=O)CCC1=O)c1cc(C(F)(F)F)cc(C(F)(F)F)c1` [fragment 46, 3,5-Bis(trifluoromethyl)benzoic acid NHS ester], the “isoTOP-ABPP ratio, lysine Q9UKV3_K103” value in assay [5] is given as 16.6. In the case of `CC(C)(C)OC(=O)N=C(NC(=O)OC(C)(C)C)n1cccn1` [fragment 50, reference compound], the “isoTOP-ABPP ratio, lysine O43837_K207” value in assay [1] (100 uM_231_sol_in vitro) was 3.1.
